One experiment relates to Candida species. Description: MIC, Candida species. It is filed as cell-based. The note with it: studied Candida species. As to the method:
The antimicrobial activity of the compounds was tested on Gram-positive bacteria (Staphylococcus aureus NCTC 4163, Staphylococcus aureus ATCC 25923, Staphylococcus aureus ATCC 6538, Staphylococcus aureus ATCC 29213, Staphylococcus epidermidis ATCC 12228, Staphylococcus epidermidis ATCC 35984), Gram-negative rods (Escherichia coli ATCC 10538, Escherichia coli ATCC 25922, Pseudomonas aeruginosa ATCC 15442, Pseudomonas aeruginosa ATCC 27863) and yeasts (Candida albicans ATCC 10231, Candida albicans ATCC 90028, Candida parapsilosis ATCC 22019). Hospital methicillin-resistant strains of Staphylococcus aureus and Staphylococcus epidermidis were obtained from the collection of the Department of Pharmaceutical Microbiology, Medical University of Warsaw, Poland.
Antifungal activities were assessed using Mueller–Hinton agar + 2% glucose and 0.5 µg/mL methylene blue dye medium. Sterile filter paper discs (9 mm diameter, Whatman Number 3 chromatography paper) were dripped with tested compound solutions (in dimethylsulfoxide, DMSO) to load 400 μg of a given compound per disc. Dry discs were placed on the surface of appropriate agar medium. The results (diameter of the growth inhibition zone) were read after 18 h of incubation at 35 °C. Minimal inhibitory concentration (MIC) was tested by the twofold serial microdilution method (in 96-well microtiter plates) using Mueller–Hinton broth medium (Beckton Dickinson) for bacteria or RPMI-1640 medium for Candida species, according to CLSI guidelines. The stock solution of tested agent was prepared in DMSO and diluted in sterile water. […] The final inoculum of all studied microorganisms was 10^5 CFU/ mL^−1 (colony forming units per ml). Minimal inhibitory concentrations (the lowest concentration of a tested agent that prevents visible growth of a microorganism) were read after 18 h (bacteria) or 24 h (yeasts) of incubation at 35 °C.

In a further experiment the test system is SW620 cells. Description: Annexin V-FITC/PI flow cytometry, SW620. To be noted: SW620, IC50 dose, 72 h. Type of experiment: cell-based, human. As to the method:
(§1) The cells were cultured and harvested under the conditions described in the cell culture section. […] The effect of these compounds on the process of early and late apoptosis and necrosis was determined, as described previously, by dual staining with annexin V-FITC and propidium iodide according to manufacturer’s protocol (Becton Dickinson). The cells that were annexin V-FITC positive and PI-negative were identified as early apoptotic and annexin V-FITC and PI-positive as late apoptotic or necrotic.

Another experiment concerns PC3 cells. Put plainly: Annexin V-FITC/PI flow cytometry, PC3. It is filed as cell-based, human. The note with it: PC3, IC50 dose, 72 h. The method, then: as §1
For experiment [1], the system named is Glutathione S-transferase P (GSTP1_HUMAN). Put plainly: LC–MS proteome analysis, GSTP1. It is filed as cell-based, Homo sapiens. To be noted: IC50 concentration, % of control. The method, then: (§2) Enzymes involved in oxidoreductive potential were analyzed in the cell lysates obtained after treatment cells with selected conjugates for 24 h. Cells were washed with phosphate-buffered saline (PBS) and harvested, then centrifuged at 1000× g for 10 min. Then, lysis buffer (containing protease inhibitor, 1% RIPA Lysis and Extraction Buffer (ThermoFisher)) and cold PBS were added, and samples were sonicated three times in ice bath. Next, the cell lysates were centrifuged at 14,000× g at 4 °C for 15 min, and then supernatants were stored at […] before use. Protein concentration was measured by the Bradford method.
(§3) Normalized protein concentrations (5 µg) from cell lysate were precipitated by ice cold (–20 °C) acetonitrile (ACN, Merck, in ratio 1:4). Then, samples were centrifuged (–9 °C, 30 min., 18,000× g), the supernatant was discarded and ACN excess was evaporated using a vacuum centrifuge (5 min., room temp.). Protein pellet was dissolved in 40 mM ammonium bicarbonate. An amount of 500 mM dithiothreitol (DTT, with final concentration 20 mM) and 1 M iodoacetamide (IAA, with final concentration 40 mM) were used for reduction and alkylation processes. After 16 h of incubation in 37 °C with Trypsin Gold (Promega), digested protein samples were diluted with 0.1% formic acid (ThermoFisher) and centrifuged (+2 °C, 30 min, 18,000× g).
(§4) LC–MS analysis was carried out with the use of nanoUHPLC (nanoElute, Bruker) coupled by CaptiveSpray (Bruker) to ESI-Q-TOF mass spectrometer (Compact, Bruker). Two-column separation method was used, i.e., pre-column (300 µm × 5 mm, C18 PepMap 100, 5 µm, 100Å, Thermo Scientific) and Aurora separation column with CSI fitting (75 µm × 250 mm, C18 1.6 µm) in gradient 2% B to 35% B in 90 min with the 300 nL/min flow rate. Mobile phases (A) 0.1% formic acid in water and (B) 0.1% formic acid in ACN were used.
(§5) Sample ionizations were performed at a gas flow of 3.0 L/min, temperature of 150 °C and voltage of the capillary at 1600 V. The quadrupole energy was fixed to 5.0 eV and collision chamber energy 7.0 eV, with an ion transfer time of 90 µs. The ions were analyzed in the positive polarity mode in the range 150–2200 m/z, with the acquisition frequency of the 1 Hz spectrum, as well as with the autoMS/MS system.
(§6) The collected spectra were analyzed and calibrated using DataAnalysis software (Bruker) and then identified in ProteinScape (Bruker) by the MASCOT server. Protein identification was conducted using the online SwissProt and NCBIprot databases, and their references and biological significance were identified using Reactome.org, String.org and KEGG.

In experiment [2] the test system is Glutathione reductase, mitochondrial (GSHR_HUMAN). Put plainly: LC–MS proteome analysis, GSHR. It is filed as cell-based, Homo sapiens. To be noted: IC50 concentration, % of control. As to the method: as §2, §3, §4, §5, §6
Experiment [3] relates to Superoxide dismutase [Cu-Zn] (SODC_HUMAN). Put plainly: LC–MS proteome analysis, SODC. Type of experiment: cell-based, Homo sapiens. To be noted: for Protein Intensity, % (SODC): IC50 concentration, % of control. The method, then: as §2, §3, §4, §5, §6
Experiment [4] deals with Peroxiredoxin-1 (PRDX1_HUMAN). Description: LC–MS proteome analysis, PRDX1. To be noted: IC50 concentration, % of control. It is filed as cell-based, Homo sapiens. As to the method:
as §2, §3, §4, §5, §6

Experiment [5] concerns Peroxiredoxin-2 (PRDX2_HUMAN). Description: LC–MS proteome analysis, PRDX2. Type of experiment: cell-based, Homo sapiens. The note with it: IC50 concentration, % of control. As to the method: as §2, §3, §4, §5, §6
Experiment [6] concerns Peroxiredoxin-6 (PRDX6_HUMAN). Description: LC–MS proteome analysis, PRDX6. Type of experiment: cell-based, Homo sapiens. The note with it: IC50 concentration, % of control. The method, then: as §2, §3, §4, §5, §6
For experiment [7], the system named is Thioredoxin-dependent peroxide reductase, mitochondrial (PRDX3_HUMAN). Put plainly: LC–MS proteome analysis, PRDX3. Type of experiment: cell-based, Homo sapiens. The note with it: IC50 concentration, % of control. As to the method:
as §2, §3, §4, §5, §6

Each structure is given as a SMILES string.

On to `O=[N+]([O-])c1cc(NC2=[N+](c3ccc(Cl)c([N+](=O)[O-])c3)[Cu-2]3([S]2)[S]C(Nc2ccc(Cl)c([N+](=O)[O-])c2)=[N+]3c2ccc(Cl)c([N+](=O)[O-])c2)ccc1Cl` [Compound 6, Copper (II) complex with 1,3-bis(4-chloro-3-nitrophenyl)thiourea], for which the growth inhibitory dose in the experiment on Candida species is on record as 64 µg/mL.

On to `O=[N+]([O-])c1cc([N+]2=C(Nc3ccccc3F)[S][Cu-2]23[S]C(Nc2ccccc2F)=[N+]3c2ccc(Cl)c([N+](=O)[O-])c2)ccc1Cl` [Compound 7, Copper (II) complex with 1-(2-fluorophenyl)-3-(4-chloro-3-nitrophenyl)thiourea], for which the “early apoptosis, % of cells” value is reported as 35.4% ± 2.8% with SW620 cells and “one third” in the experiment with PC3 cells. Besides, the “Protein Intensity, % (GSTP1)” value was determined as 35.8% in experiment [1] (PC3, 24 h); 80.9% in experiment [1] (SW480, 24 h); 67.3% in experiment [1] (SW620, 24 h). Besides, the “Protein Intensity, % (GSHR)” value amounted to 61.2% in experiment [2] (PC3, 24 h); 91.7% in [2] (SW480, 24 h); 67.3% in [2] (SW620, 24 h). Also, the “Protein Intensity, % (SODC)” value is 15.4% in experiment [3] (PC3, 24 h); 40.6% in experiment [3] (SW480, 24 h); 44.7% in experiment [3] (SW620, 24 h). The “reduction of SODC intensity” value in experiment [3] (SW480, IC50 concentration) was 59.4%. The “Protein Intensity, % (PRDX1)” value in experiment [4] (PC3, 24 h) is 46.5%; in experiment [4] (SW480, 24 h), 71.6%; in experiment [4] (SW620, 24 h) it was 83.2%. The “Protein Intensity, % (PRDX2)” value in [5] (PC3, 24 h) was found to be 32.2%; in [5] (SW480, 24 h), 69.4%; in experiment [5] (SW620, 24 h), 58.6%. In addition, the “Protein Intensity, % (PRDX6)” value in [6] (PC3, 24 h) amounted to 35.0%; in experiment [6] (SW480, 24 h), 68.3%; in [6] (SW620, 24 h) it was 67.5%. Also, the “Protein Intensity, % (PRDX3)” value in experiment [7] (PC3, 24 h) came out at 12.4%; in experiment [7] (SW480, 24 h), 90.4%; in experiment [7] (SW620, 24 h), 61.2%.

Regarding `O=[N+]([O-])c1cc([N+]2=C(Nc3cccc(Br)c3)[S][Cu-2]23[S]C(Nc2cccc(Br)c2)=[N+]3c2ccc(Cl)c([N+](=O)[O-])c2)ccc1Cl` [Compound 2, Copper (II) complex with 1-(3-bromophenyl)-3-(4-chloro-3-nitrophenyl)thiourea], in the experiment with Candida species, the growth inhibitory dose stood at 64 µg/mL.

`O=[N+]([O-])c1cc([N+]2=C(Nc3ccc(Br)cc3)[S][Cu-2]23[S]C(Nc2ccc(Br)cc2)=[N+]3c2ccc(Cl)c([N+](=O)[O-])c2)ccc1Cl` [Compound 3, Copper (II) complex with 1-(4-bromophenyl)-3-(4-chloro-3-nitrophenyl)thiourea]: the entries for the “early apoptosis, % of cells” value with SW620 cells and in the experiment on PC3 cells were “approximately 20%” and 45.5% ± 3.5%, respectively. Also, the “Protein Intensity, % (GSTP1)” value in [1] (PC3, 24 h) is 51.1%; in experiment [1] (SW480, 24 h) it was 75.9%; in experiment [1] (SW620, 24 h), 64.5%. For the same molecule, the “Protein Intensity, % (GSHR)” value in experiment [2] (PC3, 24 h) came out at 58.9%; in experiment [2] (SW480, 24 h), 63.1%; in experiment [2] (SW620, 24 h), 79.2%. For the same molecule, the “Protein Intensity, % (SODC)” value was 30.9% in [3] (PC3, 24 h); 75.3% in experiment [3] (SW480, 24 h); 78.2% in experiment [3] (SW620, 24 h). Also, the “Protein Intensity, % (PRDX1)” value stood at 47.8% in experiment [4] (PC3, 24 h); 88.5% in experiment [4] (SW480, 24 h); 89.0% in experiment [4] (SW620, 24 h). The “Protein Intensity, % (PRDX2)” value in experiment [5] (PC3, 24 h) was 47.3%; in experiment [5] (SW480, 24 h) it was 93.7%; in experiment [5] (SW620, 24 h), 71.6%. The “Protein Intensity, % (PRDX6)” value in [6] (PC3, 24 h) came to 71.1%; in [6] (SW480, 24 h), 81.3%; in experiment [6] (SW620, 24 h), 66.4%. Further, the “Protein Intensity, % (PRDX3)” value in [7] (PC3, 24 h) amounted to 57.3%; in experiment [7] (SW480, 24 h), 85.4%; in experiment [7] (SW620, 24 h) it was 67.5%. The growth inhibitory dose with Candida species came to 64 µg/mL.

With `O=[N+]([O-])c1cc([N+]2=C(Nc3ccccc3Br)[S][Cu-2]23[S]C(Nc2ccccc2Br)=[N+]3c2ccc(Cl)c([N+](=O)[O-])c2)ccc1Cl` [Compound 1, Copper (II) complex with 1-(2-bromophenyl)-3-(4-chloro-3-nitrophenyl)thiourea], the “early apoptosis, % of cells” value with SW620 cells is 38.4% ± 2.4%; in the experiment with PC3 cells, “one third”. Besides, the “Protein Intensity, % (GSTP1)” value worked out at 95.0% in experiment [1] (PC3, 24 h); 84.8% in [1] (SW480, 24 h); 74.4% in experiment [1] (SW620, 24 h). Besides, the “Protein Intensity, % (GSHR)” value in experiment [2] (PC3, 24 h) came out at 71.1%; in experiment [2] (SW480, 24 h), 58.1%; in experiment [2] (SW620, 24 h), 69.1%. Further, the “Protein Intensity, % (SODC)” value was 58.5% in experiment [3] (PC3, 24 h); 68.2% in experiment [3] (SW480, 24 h); 72.7% in experiment [3] (SW620, 24 h). Further, the “Protein Intensity, % (PRDX1)” value in experiment [4] (PC3, 24 h) came to 73.9%; in experiment [4] (SW480, 24 h) it was 95.9%; in [4] (SW620, 24 h) it was 96.1%. Besides, the “Protein Intensity, % (PRDX2)” value is given as 42.3% in experiment [5] (PC3, 24 h); 95.5% in [5] (SW480, 24 h); 92.1% in experiment [5] (SW620, 24 h). In addition, the “Protein Intensity, % (PRDX6)” value came out at 66.6% in experiment [6] (PC3, 24 h); 75.1% in experiment [6] (SW480, 24 h); 83.2% in experiment [6] (SW620, 24 h). The “Protein Intensity, % (PRDX3)” value in [7] (PC3, 24 h) came out at 69.5%; in experiment [7] (SW480, 24 h), 95.2%; in experiment [7] (SW620, 24 h), 69.9%.

Values taken from PMC8584173, “The Cytotoxic Effect of Copper (II) Complexes with Halogenated 1,3-Disubstituted Arylthioureas on Cancer and Bacterial Cells” (International Journal of Molecular Sciences, 2021).
